Measured values reported in ChEMBL document CHEMBL3714727, “Novel dihydropyrimidinoisoquinolinones and pharmaceutical compositions thereof for the treatment of inflammatory disorders (gpr84 antagonists)” (2014).

target: T1, G-protein coupled receptor 84 (Homo sapiens, UniProt Q9NQS5); assay: Antagonist activity against GPR84 (unknown origin) expressed in cell membranes assessed as inhibition of 3,3'-di-indolylmethane-induced [35S]GTPgammaS binding treated for 90 mins after 3,3'-di-indolylmethane stimulation in buffer containing 20 mM HEPES at pH 7.4 by top-count assay; format: functional
T1 sequence (Q9NQS5 whole entry): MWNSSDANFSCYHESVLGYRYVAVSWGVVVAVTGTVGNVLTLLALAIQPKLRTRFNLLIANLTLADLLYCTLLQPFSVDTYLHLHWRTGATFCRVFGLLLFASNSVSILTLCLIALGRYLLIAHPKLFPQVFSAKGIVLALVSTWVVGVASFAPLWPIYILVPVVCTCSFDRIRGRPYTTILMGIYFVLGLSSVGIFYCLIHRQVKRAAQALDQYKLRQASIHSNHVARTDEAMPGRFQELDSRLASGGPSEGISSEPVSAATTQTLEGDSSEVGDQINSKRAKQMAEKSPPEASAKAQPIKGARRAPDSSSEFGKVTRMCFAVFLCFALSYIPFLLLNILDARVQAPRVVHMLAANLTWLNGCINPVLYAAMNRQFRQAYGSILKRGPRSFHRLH

Structure (SMILES)	IC50
O=c1nc(OCC2CCCO2)cc2n1CCc1cc(OCC3COc4ccccc4O3)ccc1-2 (centres undefined)	≤ 100 nM
N#CCOc1ccc2c(c1)CCn1c-2cc(OCC2COc3ncccc3O2)nc1=O (centres undefined)	≤ 100 nM
O=c1nc(OCC2COc3ncccc3O2)cc2n1CCc1cc(COCCN3CCOCC3)ccc1-2 (centres undefined)	≤ 100 nM
CCCC(O)C#Cc1ccc2c(c1)CCn1c-2cc(OCC2COc3ncccc3O2)nc1=O (centres undefined)	≤ 100 nM
O=c1nc(OCC2COc3ncccc3O2)cc2n1CCc1cc(OCc3nnn[nH]3)ccc1-2 (centres undefined)	≤ 100 nM
COc1ccc(COc2ccc3c(c2)CCn2c-3cc(OCC3CCCO3)nc2=O)cc1 (centres undefined)	≤ 100 nM
CC1(COCc2ccc3c(c2)CCn2c-3cc(OCC3COc4ncccc4O3)nc2=O)COC1 (centres undefined)	≤ 100 nM
CC(C)(O)C#Cc1ccc2c(c1)CCn1c-2cc(OCC2COc3ncccc3O2)nc1=O (centres undefined)	≤ 100 nM
O=c1nc(OCC2CCCO2)cc2n1CCc1cc(OCc3cccc(-c4cncnc4)n3)ccc1-2 (centres undefined)	≤ 500 nM
O=c1nc(OCC2COc3ncccc3O2)cc2n1CCc1cc(CN3CCCCC3)ccc1-2 (centres undefined)	≤ 100 nM
COc1ccc2c(c1)CCn1c-2cc(OCC2CCc3ccccc3O2)nc1=O (centres undefined)	> 1000 nM
O=c1nc(OCC2COc3ncccc3O2)cc2n1CCc1cc(COC3COC3)ccc1-2 (centres undefined)	≤ 100 nM
N#Cc1ccc(-c2ccc3c(c2)CCn2c-3cc(OCC3CCCO3)nc2=O)cc1 (centres undefined)	> 1000 nM
O=c1nc(OCC2COc3ncccc3O2)cc2n1CCc1cc(OCc3ccccn3)ccc1-2 (centres undefined)	≤ 100 nM
O=c1nc(OCC2CCCO2)cc2n1CCc1cc(OCCOc3ccccc3)ccc1-2 (centres undefined)	≤ 100 nM
O=c1nc(OCC2COc3ncccc3O2)cc2n1CCc1cc(-c3cn[nH]c3)ccc1-2 (centres undefined)	≤ 100 nM
CC(C)N(C)C(=O)COc1ccc2c(c1)CCn1c-2cc(OCC2CCCO2)nc1=O (centres undefined)	> 1000 nM
CCN(CC)C(=O)COc1ccc2c(c1)CCn1c-2cc(OCC2CCCO2)nc1=O (centres undefined)	> 1000 nM

Structure (SMILES)	IC50
O=C(O)c1ccc(-c2ccc3c(c2)CCn2c-3cc(OCC3CCCO3)nc2=O)cc1 (centres undefined)	> 1000 nM
O=c1nc(OCC2CCCO2)cc2n1CCc1cc(OCc3cccc([N+](=O)[O-])c3)ccc1-2 (centres undefined)	≤ 100 nM
O=c1nc(OCC2CCCO2)cc2n1CCc1cc(O)ccc1-2 (centres undefined)	> 1000 nM
O=C(NCC1COC1)c1ccc2c(c1)CCn1c-2cc(OCC2COc3ncccc3O2)nc1=O (centres undefined)	> 1000 nM
CC(O)C#Cc1ccc2c(c1)CCn1c-2cc(OCC2COc3ncccc3O2)nc1=O (centres undefined)	≤ 100 nM
Cn1cc(-c2ccc3c(c2)CCn2c-3cc(OCC3CCCO3)nc2=O)cn1 (centres undefined)	> 1000 nM
CC(C)C(O)C#Cc1ccc2c(c1)CCn1c-2cc(OCC2COc3ncccc3O2)nc1=O (centres undefined)	≤ 100 nM
CCC(O)C#Cc1ccc2c(c1)CCn1c-2cc(OCC2COc3ncccc3O2)nc1=O (centres undefined)	≤ 100 nM
N#CCOc1ccc2c(c1)CCn1c-2cc(OCC2CCCO2)nc1=O (centres undefined)	> 1000 nM
NC(=O)COc1ccc2c(c1)CCn1c-2cc(OCC2CCCO2)nc1=O (centres undefined)	> 1000 nM
CC(C)(C)NCc1ccc2c(c1)CCn1c-2cc(OCC2COc3ncccc3O2)nc1=O (centres undefined)	> 1000 nM
C=CCOc1ccc2c(c1)CCn1c-2cc(OCC2CCCO2)nc1=O (centres undefined)	> 1000 nM
O=c1nc(OCC2CCCO2)cc2n1CCc1cc(OCc3cccc(-c4ccccc4)n3)ccc1-2 (centres undefined)	> 1000 nM
O=c1nc(OCC2COc3ncccc3O2)cc2n1CCc1cc(OCc3ncco3)ccc1-2 (single isomer, unassigned)	≤ 100 nM
O=c1nc(OCC2COc3ccccc3O2)cc2n1CCc1cc(OCc3nnn[nH]3)ccc1-2 (centres undefined)	≤ 100 nM
O=c1nc(OCC2COc3ncccc3O2)cc2n1CCc1cc(C#CCNCc3ccccc3)ccc1-2 (centres undefined)	≤ 100 nM
CN(C)C(=O)COc1ccc2c(c1)CCn1c-2cc(OCC2CCCO2)nc1=O (centres undefined)	> 1000 nM

target: T1, G-protein coupled receptor 84; assay: Antagonist activity against GPR84 (unknown origin) expressed in cell membranes assessed as inhibition of 3,3'-di-indolylmethane-induced [35S]GTPgammaS binding treated for 90 mins after 3,3'-di-indolylmethane stimulation in buffer containing 20 mM Tris at pH 7.5 by top-count assay; format: functional

Structure (SMILES)	IC50
O=c1nc(OCC2CCCO2)cc2n1CCc1cc(-c3cncnc3)ccc1-2 (centres undefined)	> 1000 nM
Cc1cccc(C)c1-c1ccc2c(c1)CCn1c-2cc(OCC2CCCO2)nc1=O (centres undefined)	> 1000 nM
CC(C)(C)OC(=O)n1cccc1-c1ccc2c(c1)CCn1c-2cc(OCC2CCCO2)nc1=O (centres undefined)	> 1000 nM
CN(C)C(=O)c1cccc(-c2ccc3c(c2)CCn2c-3cc(OCC3CCCO3)nc2=O)c1 (centres undefined)	> 1000 nM
